Experimental data from patent US20240067657A1, “AMIDO-SUBSTITUTED PYRIDYL COMPOUNDS AND METHODS OF USE THEREOF FOR THE TREATMENT OF HERPESVIRUSES” (Merck Sharp & Dohme LLC, priority 2020, published 2024).
Where two headings read alike, the source gives them in different places.

Experiments:
[1] = system: HSV-1 Strain F in Vero or MRC5 cells; test: Viral qPCR assay HSV-1 (V0/V1, V2/V3), EC50; type: cell-based
In short: (§1)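 Infected cells added to compounds (10-point 3-fold series), ~72 h at 37 °C, then lysed; viral genomes by TaqMan qPCR against plasmid standard, normalized to PPIA in V0/V1 only, EC50 from 4-parameter fit. HCMV AD169, 0.05-0.1 pfu/cell, ± 50% FBS; VZV 0.04-0.1 pfu/cell; HSV-1 F 0.0005-0.004 pfu/cell.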

[2] = target: T1, varicella zoster virus DNA polymerase (Varicella-zoster virus, UniProt P09252); test: VZV polymerase assay (AlphaLISA, IC50); type: biochemical; settings: polymerase assay of Example 190
T1 construct: made in house; host or cells: SF21 insect cells (baculovirus vector)
T1 sequence (P09252 whole entry): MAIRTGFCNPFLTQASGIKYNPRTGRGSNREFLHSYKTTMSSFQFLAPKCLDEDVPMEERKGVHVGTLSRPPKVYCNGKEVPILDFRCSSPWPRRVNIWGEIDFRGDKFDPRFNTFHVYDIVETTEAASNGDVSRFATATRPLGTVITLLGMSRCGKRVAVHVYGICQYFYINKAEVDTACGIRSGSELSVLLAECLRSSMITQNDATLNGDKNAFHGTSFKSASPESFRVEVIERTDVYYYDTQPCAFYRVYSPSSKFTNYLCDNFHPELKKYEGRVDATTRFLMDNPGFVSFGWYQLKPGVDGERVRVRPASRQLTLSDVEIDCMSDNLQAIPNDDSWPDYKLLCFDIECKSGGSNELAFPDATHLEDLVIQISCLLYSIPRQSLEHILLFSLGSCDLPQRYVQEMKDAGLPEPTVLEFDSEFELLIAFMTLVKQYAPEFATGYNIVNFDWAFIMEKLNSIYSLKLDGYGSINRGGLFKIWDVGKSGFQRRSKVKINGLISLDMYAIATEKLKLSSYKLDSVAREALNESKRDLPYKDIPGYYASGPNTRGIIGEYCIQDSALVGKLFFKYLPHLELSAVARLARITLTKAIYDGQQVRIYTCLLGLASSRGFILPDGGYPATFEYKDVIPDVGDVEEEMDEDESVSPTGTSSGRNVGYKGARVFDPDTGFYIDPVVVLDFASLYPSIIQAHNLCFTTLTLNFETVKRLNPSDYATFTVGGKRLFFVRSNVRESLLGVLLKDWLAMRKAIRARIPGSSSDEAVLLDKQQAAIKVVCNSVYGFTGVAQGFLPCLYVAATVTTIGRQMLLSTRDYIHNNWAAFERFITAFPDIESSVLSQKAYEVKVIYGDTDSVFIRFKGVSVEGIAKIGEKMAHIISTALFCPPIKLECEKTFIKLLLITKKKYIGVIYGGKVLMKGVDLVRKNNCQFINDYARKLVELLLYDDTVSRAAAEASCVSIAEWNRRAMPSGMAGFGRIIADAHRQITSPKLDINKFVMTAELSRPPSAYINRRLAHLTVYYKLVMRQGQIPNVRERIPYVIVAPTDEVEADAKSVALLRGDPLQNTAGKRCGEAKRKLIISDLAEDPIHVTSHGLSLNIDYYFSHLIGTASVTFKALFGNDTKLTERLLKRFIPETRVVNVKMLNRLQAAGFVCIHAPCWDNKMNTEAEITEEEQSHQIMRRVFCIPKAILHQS
In short: (§2)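 Baculovirus-expressed polymerase (HCMV 0.2 nM, VZV 0.4 nM final) preincubated 30 min at room temperature with compound in pH 7.5 HEPES buffer; reaction started with 1.6 nM DIG-primer/template and nM dNTPs including biotin-dUTP, run 60 min at 37° C. Incorporation detected by AlphaLISA; IC50 from 4-parameter fit.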

[3] = system: VZV in MeWo or MRC5 cells; test: Viral qPCR assay VZV (V0/V1, V2/V3), EC50; type: cell-based
In short: as §1

[4] = target: T2, Human cytomegalovirus DNA polymerase (Human cytomegalovirus, UniProt P08546); test: HCMV polymerase assay (AlphaLISA, IC50); type: biochemical; settings: polymerase assay of Example 190
T2 construct: made in house; host or cells: SF21 insect cells (baculovirus vector)
T2 sequence (P08546 whole entry): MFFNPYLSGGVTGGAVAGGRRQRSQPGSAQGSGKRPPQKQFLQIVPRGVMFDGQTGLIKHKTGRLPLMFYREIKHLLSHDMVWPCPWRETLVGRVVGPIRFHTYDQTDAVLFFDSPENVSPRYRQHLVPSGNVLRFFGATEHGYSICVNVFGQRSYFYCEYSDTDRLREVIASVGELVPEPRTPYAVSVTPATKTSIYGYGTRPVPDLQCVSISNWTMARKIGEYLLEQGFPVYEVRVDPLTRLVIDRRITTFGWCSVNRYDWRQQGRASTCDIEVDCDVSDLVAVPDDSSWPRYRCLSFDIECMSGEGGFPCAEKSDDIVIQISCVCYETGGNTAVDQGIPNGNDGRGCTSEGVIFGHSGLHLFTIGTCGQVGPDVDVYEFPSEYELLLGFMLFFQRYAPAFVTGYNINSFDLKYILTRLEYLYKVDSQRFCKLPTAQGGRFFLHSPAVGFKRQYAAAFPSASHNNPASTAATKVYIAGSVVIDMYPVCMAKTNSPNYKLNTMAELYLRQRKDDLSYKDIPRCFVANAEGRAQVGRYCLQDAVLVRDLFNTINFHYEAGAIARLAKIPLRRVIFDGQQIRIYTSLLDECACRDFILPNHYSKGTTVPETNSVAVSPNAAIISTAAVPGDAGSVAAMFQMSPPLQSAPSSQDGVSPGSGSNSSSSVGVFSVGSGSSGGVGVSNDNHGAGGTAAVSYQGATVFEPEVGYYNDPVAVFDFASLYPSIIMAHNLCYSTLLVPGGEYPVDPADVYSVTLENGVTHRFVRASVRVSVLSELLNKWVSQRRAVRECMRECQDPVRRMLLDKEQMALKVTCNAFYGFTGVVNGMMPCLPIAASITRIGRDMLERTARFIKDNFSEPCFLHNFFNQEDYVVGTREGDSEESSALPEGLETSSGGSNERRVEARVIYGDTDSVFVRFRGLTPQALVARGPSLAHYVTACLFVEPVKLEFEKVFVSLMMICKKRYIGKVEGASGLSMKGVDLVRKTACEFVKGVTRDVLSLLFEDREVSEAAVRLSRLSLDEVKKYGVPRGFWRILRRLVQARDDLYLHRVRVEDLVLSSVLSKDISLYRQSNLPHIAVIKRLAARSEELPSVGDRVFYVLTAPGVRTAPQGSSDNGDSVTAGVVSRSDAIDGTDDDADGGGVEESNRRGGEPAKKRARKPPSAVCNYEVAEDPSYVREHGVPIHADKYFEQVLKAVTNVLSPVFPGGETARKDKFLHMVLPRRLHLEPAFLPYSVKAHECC
In short: as §2

[5] = system: HCMV Strain AD169 in MRC-5 cells; test: Viral qPCR assay HCMV (V0/V1, V2/V3), EC50; type: cell-based
In short: as §1

[6] = Human alphaherpesvirus 1, MRC5, MRC5 cells, 10%, read-out: HSV1 Cell (EC50) MRC5 10%
[7] = Human alphaherpesvirus 3, MRC5, MRC5 cells, 10%, read-out: VZV Cell (EC50) MRC5 10%
[8] = Human betaherpesvirus 5, AD169, MRC5, viral qPCR assay of Example 191, read-out: HCMV Cell (EC50)
[9] = Human alphaherpesvirus 1, Vero, VERO cells, 10%, read-out: HSV1 Cell (EC50) VERO 10%
[10] = Human alphaherpesvirus 3, MeWo, MEWO cells, 10%, read-out: VZV Cell (EC50) MEWO 10%

| Compound | IC50 [2] [nM] | IC50 [4] [nM] | EC50 [1, 6] [nM] | EC50 [3, 7] [nM] | EC50 [5, 8] [nM] | EC50 [1, 9] [nM] | EC50 ([1]; Human alphaherpesvirus 1, Vero, read-out: HSV1 Cell (EC50) VERO 10%) [nM] | EC50 ([3]; Human alphaherpesvirus 3, MeWo, read-out: VZV Cell (EC50) MEWO 10%) [nM] | EC50 ([5]; Human betaherpesvirus 5, AD169, MRC5, read-out: HCMV Cell (EC50)) [nM] | EC50 [3, 10] [nM] | EC50 ([1]; MRC5 cells, 10%, read-out: HSV1 Cell (EC50) MRC5 10%) [nM] | EC50 ([3]; MRC5 cells, 10%, read-out: VZV Cell (EC50) MRC5 10%) [nM] |
| --- | --- | --- | --- | --- | --- | --- | --- | --- | --- | --- | --- | --- |
| CC(C)(O)Cn1cc(-c2cnc(C(=O)NCc3ccc(Cl)cc3)cc2O[C@H]2CCN3C(=O)OC[C@@H]3C2)cn1 [Compound 35] | 7.5 | 8.15 | 205 | 440 | 396 | 1000 | – | – | – | – | – | – |
| Cn1cc(-c2cnc(C(=O)NCc3ccc(Cl)cc3)cc2O[C@H]2CCN3C(=O)COC[C@@H]3C2)cn1 (racemic) [Compound 157] | 70.8 | 150 | – | – | – | – | 222 | 852 | 901 | – | – | – |
| COc1cc(-c2cnc(C(=O)NCc3ccc(Cl)cc3)cc2OC2CCN(C(C)=O)CC2)sn1 [Compound 45] | 3.37 | 28.9 | 135 | 128 | 455 | – | – | – | – | – | – | – |
| CCCn1cc(-c2cnc(C(=O)NCc3ccc(Cl)cc3)cc2O[C@H]2CCN3C(=O)OC[C@@H]3C2)cn1 (racemic) [Compound 13] | 38 | 50.9 | – | – | 363 | 388 | – | – | – | 601 | – | – |
| CC(C)CCn1cc(-c2cnc(C(=O)NCc3ccc(Cl)cc3)cc2O[C@H]2CCN3C(=O)OC[C@@H]3C2)cn1 (racemic) [Compound 9] | 114 | 147 | – | – | 582 | 1130 | – | – | – | 859 | – | – |
| O=C(NCc1ccc(Cl)cc1)c1cc(O[C@H]2CCN3C(=O)OC[C@@H]3C2)c(CN2CCOCC2)cn1 [Compound 78] | 31.7 | 83.2 | – | – | 446 | 560 | – | – | – | 642 | – | – |
| CC(=O)N1CCC(Oc2cc(C(=O)NCc3ccc(Cl)cc3)ncc2-c2cn[nH]c2)CC1 [Compound 69] | 32.5 | 109 | – | – | 678 | 1110 | – | – | – | 351 | – | – |
| Cn1cnc(-c2cnc(C(=O)NCc3ccc(Cl)cc3)cc2O[C@H]2CCN3C(=O)OC[C@@H]3C2)c1 [Compound 38] | 6.53 | 11.6 | ≥ 80200 | – | 72.8 | 194 | – | – | – | 53.2 | – | – |
| CCn1cc(-c2cnc(C(=O)NCc3ccc(Cl)cc3)cc2O[C@H]2CCN3C(=O)OC[C@@H]3C2)cn1 (racemic) [Compound 16] | 11.2 | 20.8 | – | – | 188 | 200 | – | – | – | 165 | – | – |
| O=C(NCc1ccc(Cl)cc1)c1cc(O[C@H]2CCN3C(=O)OC[C@@H]3C2)c(-c2cnn3c2COCC3)cn1 [Compound 20] | 12.8 | 16.4 | 235 | 343 | 132 | – | – | – | – | – | – | – |
| O=C(NCc1ccc(Cl)cc1)c1cc(O[C@H]2CCN3C(=O)OC[C@@H]3C2)c(-c2ccn(C(F)F)n2)cn1 [Compound 26] | 13.9 | 13.9 | ≥ 80200 | 4590 | 280 | 119 | – | – | – | – | – | – |
| CC(=O)N1CCC(Oc2cc(C(=O)NCc3ccc(Cl)cc3)ncc2-c2cnn(CCO)c2)CC1 [Compound 62] | 67.5 | 222 | – | – | 1580 | 4880 | – | – | – | 162 | – | – |
| O=C(NCc1ccc(Cl)c(F)c1)c1cc(O[C@H]2CCN3C(=O)OC[C@@H]3C2)c(-c2cnn(C(F)F)c2)cn1 [Compound 79] | 5.19 | 6.9 | 219 | 209 | 103 | 196 | – | – | – | – | – | – |
| O=C(NCc1ccc(Cl)cc1)c1cc(O[C@H]2CCN3C(=O)OC[C@@H]3C2)c(-c2nccs2)cn1 [Compound 40] | 9.39 | 10.4 | – | – | 55.7 | 30.8 | – | – | – | 16.7 | – | – |
| CC(=O)N1CCC(Oc2cc(C(=O)NCc3ccc(Cl)cc3)ncc2-c2cnc(C)o2)CC1 [Compound 66] | 18.6 | 47.4 | 242 | 288 | 250 | – | – | – | – | – | – | – |

Continued, in another order:

| IC50 [2] [nM] | IC50 [4] [nM] | Compound | EC50 [1, 6] [nM] | EC50 [3, 7] [nM] | EC50 [5, 8] [nM] | EC50 [1, 9] [nM] | EC50 ([1]; Human alphaherpesvirus 1, Vero, read-out: HSV1 Cell (EC50) VERO 10%) [nM] | EC50 ([3]; Human alphaherpesvirus 3, MeWo, read-out: VZV Cell (EC50) MEWO 10%) [nM] | EC50 ([5]; Human betaherpesvirus 5, AD169, MRC5, read-out: HCMV Cell (EC50)) [nM] | EC50 [3, 10] [nM] | EC50 ([1]; MRC5 cells, 10%, read-out: HSV1 Cell (EC50) MRC5 10%) [nM] | EC50 ([3]; MRC5 cells, 10%, read-out: VZV Cell (EC50) MRC5 10%) [nM] |
| --- | --- | --- | --- | --- | --- | --- | --- | --- | --- | --- | --- | --- |
| 8.58 | 9.49 | O=C(NCc1ccc(Cl)cc1)c1cc(O[C@H]2CCN3C(=O)CC[C@@H]3C2)c(-c2cnn(C(F)F)c2)cn1 [Compound 166] | 370 | 241 | 565 | – | – | – | – | – | – | – |
| 232 | 238 | CS(=O)(=O)N1CCC(Oc2cc(C(=O)NCc3ccc(Cl)cc3)ncc2Cl)CC1 [Compound 151] | – | – | 5340 | 1030 | – | – | – | 1410 | – | – |
| 40.7 | 67.9 | N#Cc1cnc(C(=O)NCc2ccc(Cl)cc2)cc1O[C@H]1CCN2C(=O)CC[C@@H]2C1 (racemic) [Compound 158] | – | – | 1040 | 473 | – | – | – | 574 | – | – |
| 1.99 | 1.42 | Cn1cc(-c2cnc(C(=O)NCc3ccc(C#N)c(F)c3)cc2O[C@H]2CCN3C(=O)OC[C@@H]3C2)cn1 [Compound 93] | 124 | 118 | 66.7 | 241 | – | – | – | – | – | – |
| 40.3 | 161 | CC(=O)N1CCC(Oc2cc(C(=O)NCc3ccc(Cl)cc3)[n+]([O-])cc2-c2cnn(C(F)F)c2)CC1 [Compound 132] | – | – | 1320 | 401 | – | – | – | 510 | – | – |
| 13.4 | 14.8 | CN(Cc1cnc(C(=O)NCc2ccc(Cl)cc2)cc1O[C@H]1CCN2C(=O)OC[C@@H]2C1)[C@H]1CCOC1 [Compound 143] | – | 1270 | 253 | 471 | – | – | – | – | – | – |
| 10.5 | 22.7 | CC(C)(O)C1CCN(c2cnc(C(=O)NCc3ccc(Cl)cc3)cc2O[C@H]2CCN3C(=O)OC[C@@H]3C2)C1 (single isomer, unassigned) [Compound 117-1] | – | – | 360 | – | – | – | – | – | 566 | 844 |
| 13.3 | 33 | O=C(NCc1ccc(Cl)cc1)c1cc(O[C@H]2CCN3C(=O)OC[C@@H]3C2)c(CN2CCSCC2)cn1 [Compound 139] | – | 1180 | 417 | 545 | – | – | – | – | – | – |
| 2.42 | 3.08 | O=C(NCc1ccc(Cl)cc1)c1cc(O[C@H]2CCN3C(=O)OCC[C@@H]3C2)c(-c2cnn(C(F)F)c2)cn1 (single isomer, unassigned) [Compound 162-1] | 107 | 447 | 88.6 | 77 | – | – | – | 61.1 | – | – |
| 4.71 | 7.37 | O=C(NCc1ccc(Cl)cc1)c1cc(O[C@H]2CCN3C(=O)OC[C@@H]3C2)c(/C=C/CO)cn1 [Compound 155] | 243 | 251 | 204 | 419 | – | – | – | – | – | – |
| 17.4 | 32.5 | N#Cc1ccc(CNC(=O)c2cc(O[C@H]3CCN4C(=O)OC[C@@H]4C3)c(-c3cnn(C(F)F)c3)cn2)cc1 [Compound 91] | – | – | 239 | 239 | – | – | – | 265 | – | – |
